Patent US8088941B2, “Glycogen synthase kinase-3 inhibitors” (Tel Aviv University Future Technology Development L.P., priority 2001, dated 2012)
Structures can show the parent of a compound that is named as a salt. Where two headings read alike, the source gives them in different places.

Assays:
[1] = molecular target: T1, recombinant rabbit GSK-3β (Oryctolagus cuniculus, UniProt G1T8E2); assay: In vitro GSK-3 inhibition assay with PGS-1 peptide substrate; assay type: biochemical; conditions: for GSK-3 inhibition activity: preliminary inhibition assay, FIG. 5
T1 sequence (G1T8E2 1-432): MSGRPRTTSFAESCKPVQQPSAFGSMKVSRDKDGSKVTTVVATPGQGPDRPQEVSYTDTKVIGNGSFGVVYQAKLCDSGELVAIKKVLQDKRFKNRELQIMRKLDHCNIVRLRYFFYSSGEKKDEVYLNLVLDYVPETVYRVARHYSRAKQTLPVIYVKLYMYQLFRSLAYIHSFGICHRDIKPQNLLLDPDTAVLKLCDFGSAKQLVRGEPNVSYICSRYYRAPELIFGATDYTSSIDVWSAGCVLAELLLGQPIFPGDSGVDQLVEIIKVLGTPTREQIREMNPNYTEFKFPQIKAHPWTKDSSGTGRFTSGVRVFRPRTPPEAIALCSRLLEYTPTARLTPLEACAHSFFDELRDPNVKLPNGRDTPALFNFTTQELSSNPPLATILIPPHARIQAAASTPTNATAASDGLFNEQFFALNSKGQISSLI
Experimental: (§1) In vitro inhibition assays: Purified recombinant rabbit GSK-3β (Eldar-Finkelman et al., 1996) was incubated with peptide substrate PGS-1 ([…](p)EDEEE) (SEQ ID NO:1) or peptide substrate p9CREB (SEQ ID NO:2) and with phenyl phosphate, pyridoxal phosphate (P-5-P), GSC-1, GSC-2, GSC-3, GSC-4, GSC-5, GSC-6, GSC-7 or GSC-21 (structural formulas are depicted in FIG. 3), at indicated concentrations. The reaction mixture included Tris 50 mM (pH=7.3), 10 mM MgAc, ^32P[γ-ATP] (100 μM), 0.01% β-mercaptoethanol, and was incubated for 10 minutes at 30° C. Reactions were spotted on phosphocellulose paper (p81), washed with 100 mM phosphoric acid, and counted for radioactivity (as described in Eldar-Finkelman et al., 1996).
In vitro inhibition assays: In a preliminary inhibition assay, the GSK-3 inhibition activity of the known compounds phenyl phosphate, pyridoxal phosphate, GSC-1, GSC-2 and GSC-3 was tested as described hereinabove.
In an additional inhibition assay, the GSK-3 inhibition activity of GSC-1, GSC-2, GSC-3, GSC-4, and GSC-21 was tested. The ability of GSK-3 to phosphorylate PGS-1 peptide substrate was measured in the presence of indicated concentrations of these compounds. The results, presented in FIG. 6, represent the percentage of GSK-3 activity as compared with a control incubation without inhibitors and are mean of 2 independent experiments±SEM, where each point was assayed in triplicate.

[2] = molecular target: T1, recombinant rabbit GSK-3β; assay: In vitro GSK-3 inhibition assay with p9CREB peptide substrate; assay type: biochemical
Experimental: as §1
In still an additional assay, the GSK-3 inhibition activity of GSC-1, GSC-2, GSC-3, GSC-4, GSC-5, GSC-6, and GSC-7 was tested. The ability of GSK-3 to phosphorylate p9CREB peptide substrate was measured in the presence of indicated concentrations of these compounds. The results, presented in FIGS. 7a and 7b, represent the percentage of GSK-3 activity as compared with a control incubation without inhibitors and are mean of 2 independent experiments±SEM, where each point was assayed in triplicate.
The kinetic nature of the inhibitors was studied by measuring the initial velocity as a function of the substrate concentration at several inhibitor concentrations. Lineweaver-Burk plots of the GSK-3 inhibition by these inhibitors confirmed the assumption that these are substrate-competitive inhibitors (data not shown). FIG. 8 presents the Lineweaver-Burk plot of the GSK-3 inhibition by gsc-7, as an exemplary inhibitor, represented by phosphate incorporation into p9CREB peptide substrate (CPM). […] Each point is a mean of duplicated sample.
The ability of GSK-3 to phosphorylate p9CREB peptide substrate was measured in the presence of indicated concentrations of MP molecules, using the protocol described hereinabove in Example 3. The results, presented in FIG. 19, represent the percentage of GSK-3 activity in control incubation in which inhibitors were omitted. Results are mean of 2 independent experiments±SEM, where each point was assayed in duplicate.

CDK-2 = CDK-2 (Homo sapiens, UniProt P24941); assay: CDK-2 kinase activity with histone H1 substrate (selectivity); assay type: biochemical; conditions: final concentration of 2 mM, FIG. 9
Experimental: The effect of GSC-4, GSC-5 and GSC-7 (100 and 200 μM) on other protein kinases was tested by incubating CDK-2 (1 unit) with a reaction mixture similar to that described hereinabove and containing histone H1 substrate (5 μg). The reactions were boiled with SDS sample buffer, separated on gel electrophoresis and autoradiographed.
The selectivity of the novel compounds towards GSK-3 was measured by evaluating the inhibition of CDK-2, a kinase closely related to GSK-3. Thus, CDK-2 activity was assayed in the presence of ^32P[γ-ATP] and histone H1 as a substrate. GSC-4, GSC-5 and GSC-7 were added at a final concentration of 2 mM.

Mice adipocytes = assay: Glucose uptake in isolated adipocytes; assay type: cell-based; conditions: mouse primary adipocytes, 2.5 hours
Experimental: Glucose uptake in isolated adipocytes: Mice adipocytes were isolated from epididymal fat pad by digestion with 0.8 mg/ml collagenase (Worthington Biochemical) as described previously (Lawrence et al., 1977). Digested fat pads were passed through nylon mesh and cells were washed 3 times with Krebs-bicarbonate buffer (pH=7.4) containing 1% bovine serum albumin (Fraction V, Boehringer Mannheim, Germany), 10 mM HEPES (pH=7.3), 5 mM glucose and 200 nM adenosine. Cells were incubated with GSC-4 and GSC-21 at indicated concentrations for 2.5 hours, followed by addition of 2-deoxy [^3H] glucose (0.5 μci/vial) for 10 minutes. The assay was terminated by centrifugation of cells through dinonylphthalate (ICN, USA). ^3H was thereafter quantitated by liquid scintillation analyzer (Packard). Nonspecific uptake of 2-deoxy-[^3H] glucose was determined by the addition of cytochalasin B (50 μM) 30 minutes prior to the addition of radioactive material.
Glucose Uptake: The ability of the newly designed compounds GSC-4 and GSC-21 to promote glucose uptake was tested in mouse primary adipocytes as described hereinabove. The relative [^3H] 2-deoxy glucose incorporation observed in non-treated adipocytes was normalized to 1 unit and the values obtained for [^3H] 2-deoxy glucose in adipocytes treated with GSC-4 or GSC-21 are presented as fold activation over cells treated with the peptide control, and are the mean of 6 independent experiments±SEM, where each point was assayed in triplicate.

glycogen synthase = assay: Activation of glycogen synthase in C2C12 cells; assay type: cell-based; conditions: 2.5 hours, FIG. 10
Experimental: Activation of glycogen synthase by GSK-3 inhibitors: Activation of glycogen synthase can serve as a good marker for inhibition of GSK-3. […] Thus, activation of glycogen synthase by GSC-5 and GSC-7 was tested in C2C12 myotubes. C2C12 cells were treated with GSC-5 and GSC-7 for 2.5 hours at indicated concentrations and lysate supernatants were thereafter assayed for glycogen synthase activity. The activity of glycogen synthase in cells treated with vehicle DMSO (0.1% DMSO) was normalized to 1 unit and the values for glycogen synthase activity observed in cells treated with GSK-3 inhibitors are presented as fold stimulation over the cells treated with vehicle […].
Activation of glycogen synthase by GSK-3 inhibitors: Activation of glycogen synthase activity in C2C12 cells treated with GSC-5 and GSC-7 was assayed as described hereinabove. The activity of glycogen synthase in cells treated with vehicle DMSO (0.1% DMSO) was normalized to 1 unit and the values for glycogen synthase activity observed in cells treated with GSK-3 (GS4 (hollow circles) GS6 (filled circles) are presented as fold stimulation over the cells treated with vehicle 0.1% HCL.

GSK-3 = GSK-3 (Oryctolagus cuniculus, UniProt A0A5F9DUX8); assay: Time course analyses of peptide phosphorylation by GSK-3; assay type: biochemical
Chain of GSK-3 (A0A5F9DUX8 entry or part of it): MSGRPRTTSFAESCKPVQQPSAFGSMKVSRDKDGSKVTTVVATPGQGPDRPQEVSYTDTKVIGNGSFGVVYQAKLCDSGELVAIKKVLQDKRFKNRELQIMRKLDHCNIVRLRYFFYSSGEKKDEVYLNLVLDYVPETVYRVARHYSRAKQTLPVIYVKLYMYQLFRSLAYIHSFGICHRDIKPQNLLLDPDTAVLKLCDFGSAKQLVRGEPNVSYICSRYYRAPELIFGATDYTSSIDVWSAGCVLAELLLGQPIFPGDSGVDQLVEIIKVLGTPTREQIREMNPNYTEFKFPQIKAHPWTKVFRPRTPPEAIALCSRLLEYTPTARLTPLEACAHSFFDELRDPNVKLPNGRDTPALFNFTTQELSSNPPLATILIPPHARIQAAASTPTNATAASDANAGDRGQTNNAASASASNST

[3] = MP molecules, p9CREB peptide substrate, FIG. 19

Cc1ccc(COP(=O)(O)O)cc1 [GSC-2, p-methyl benzyl phosphate]
GSK-3 inhibition activity [1]: exerted an inhibition activity

N=C(N)Nc1cccc(COP(=O)(O)O)c1 [GSC-4, 3-guanidinobenzyl phosphate]
GSK-3 inhibition activity (ranking) ([1]; PGS-1 peptide substrate, FIG. 6): most active compounds
IC50 ([2]; p9CREB peptide substrate, FIGS. 7a-b, most active compounds): 500 µM
Inhibition of histone H1 phosphorylation by CDK-2 (CDK-2): no inhibition of histone H1 phosphorylation was observed
Glucose uptake ([3H] 2-deoxy glucose incorporation), fold activation (Mice adipocytes; 10 μM): ~2 fold

N=C(N)NCc1cccc(COP(=O)(O)O)c1 [GSC-5, 3-(guanidinomethy)benzyl phosphate]
Inhibition of histone H1 phosphorylation by CDK-2 (CDK-2): no inhibition of histone H1 phosphorylation was observed
Glycogen synthase activity, fold stimulation over vehicle (glycogen synthase): 1.5 fold

N=C(N)Nc1cc(COP(=O)(O)O)cc(NC(=N)N)c1 [GSC-7, 3,5-bisguanidino benzyl phosphate]
IC50 [2]: 500 µM
Kinetic nature of inhibition (Lineweaver-Burk plot) ([2]; phosphate incorporation into p9CREB, FIG. 8): competitive specific inhibitor
Inhibition of histone H1 phosphorylation by CDK-2 (CDK-2): no inhibition of histone H1 phosphorylation was observed
Glycogen synthase activity, fold stimulation over vehicle (glycogen synthase): 1.8 fold

NCCc1cc(CCN)cc(COP(=O)(O)O)c1 [GSC-21, 3,5-bis(2-aminoethyl)benzyl phosphate]
Glucose uptake ([3H] 2-deoxy glucose incorporation), fold activation (Mice adipocytes; 0.5 μM): 1.7 fold
Glucose uptake ([3H] 2-deoxy glucose incorporation), fold activation (Mice adipocytes; 5 μM): 2.5 fold

N=C(N)Nc1cccc(-c2cn(-c3cccc(COP(=O)(O)O)c3)nn2)c1 [MP-1, 3-(4-(3-guanidinophenyl)-1,2,3-triazol-1-yl)benzyl phosphoric acid hydrochloride]
IC50 [2, 3]: ~1000 µM

N=C(N)Nc1ccc(-c2cn(-c3cccc(COP(=O)(O)O)c3)nn2)cc1 [MP-4, 3-(4-(4-guanidinophenyl)-1,2,3-triazol-1-yl)benzyl phosphoric acid hydrochloride]
IC50 [2, 3]: ~1000 µM

O=P(O)(O)Oc1ccccc1 [phenyl phosphate, reference compound]
GSK-3 inhibition activity [1]: exerted an inhibition activity

Cc1ncc(COP(=O)(O)O)c(C=O)c1O [pyridoxal phosphate, reference compound]
GSK-3 inhibition activity [1]: exerted an inhibition activity

ILSRRPEYR [9ECREB]
Phosphorylation of peptide by GSK-3 (substrate) (GSK-3): completely failed to be phosphorylated

ILSRRPSYR [9CREB]
Phosphorylation of peptide by GSK-3 (substrate) (GSK-3): completely failed to be phosphorylated
